# Laboratory results published in US20130337070A1, “Coated Nanoparticle Therapy for Skin Cancer” (University of Central Florida Research Foundation Inc., priority 2012, published 2013).
# Key:
# [1] = system: A375 melanoma cells; test: Carbonylated proteins in cells (OxyBlot); settings: A375, 150 μM CNP 4-48 h or 250 μM H2O2
# [2] = system: A375 melanoma cells; test: Oxidized thiol groups (sulfenic acid), western blot; settings: A375, 150 μM CNP 24 h or 1 mM H2O2 2 h, vs dimedone treated controls
# [3] = system: cytochrome c; test: Cytosolic cytochrome c, western blot; settings: A375; CNP 12 and 24 h; H2O2 1 h; vs mock-treated controls
# [4] = system: Caveolin-1; test: Caveolin-1 expression, western blot; assay type: cell-based, human; settings: for caveolin-1 expression after pretreatment, compared to CNP treated cells: melanoma cells pretreated with N-acetyl-L-cysteine (4 h) or apocynin (1 h), then CNP
# Experimental: FIG. 6 Expression of Caveolin-1 in melanoma cells. […] H2O2 was used as a positive control and a-tubulin as a loading control. Three independent experiments were performed.
# [5] = system: A375 melanoma cells; test: Extracellular hydrogen peroxide (Amplex Red); assay type: cell-based, human; settings: A375, 1 h pre-incubation with 1 mM apocynin prior to CNP; 24 and 48 h
# Experimental: The Amplex Red reagent (10-acetyl-3,7-dihydroxyphenoaxine), in combination with horseradish peroxidase (HRP), can be used to detect hydrogen peroxide released from cells. H2O2-mediated oxidation of the reagent results in the fluorescent product resorufin. Subconfluent A375 tumor cells were treated with 150 μM CNP or pre-incubated with 1 mM apocynin in serumfree DMEM in 96-well plates for different time points. […] Furthermore, the generation of intracellular ROS was determined using 2?,7?-Dichlorodihydrofluorescein diacetate (H2DCF-DA), a dye that diffuses across the lipid membranes into cells and is subsequently oxidized by intracellular ROS forming the highly fluorescent DCF.
# [6] = system: human dermal fibroblasts (HDF); test: Intracellular ROS (DCF fluorescence), fibroblasts; settings: 150 μM CNP or 5 μM doxorubicin, DCF over 90 min
# [7] = system: A375 melanoma cells; test: Intracellular ROS (DCF fluorescence), melanoma cells; settings: A375, 5 μM doxorubicin, DCF over 90 min
# [8] = system: caspase-3; test: Caspase-3 activity assay; assay type: cell-based, human; settings: melanoma cells, 100 nM staurosporine 24 h, positive control
# Experimental: Cell pellets were suspended in cell lysis buffer and incubated on ice for 45 min. The lysate was vortexed every 15 min. After centrifugation at 11000×g for 15 min, supernatants were collected and immediately measured for protein concentration and caspase activity. Briefly, cell lysates (20 μg protein) were placed in 96-well plates and then the specific caspase substrate (Ac-DEVD-AMC for caspase-3) was added. Plates were incubated at 37° C. for 1 h and caspase activity was determined by fluorescence intensity with the excitation and emission wavelengths set at 380 nm and 440 nm, respectively.
# [9] = system: human dermal fibroblasts (HDF)
# Experimental: (§1) The activity of mitochondrial dehydrogenases, as indicator of cellular viability, results in the formation of a purple formazan dye. […] The medium was removed and the cells were lysed in dimethyl sulfoxide. The formazan formation was measured at 570 nm.
# [10] = system: human endothelial cells (HMEC-1)
# Experimental: as §1
molecule,measurement,setting,value
"OO [H2O2, hydrogen peroxide]",amount of carbonylated proteins vs mock-treated cells,[1],significantly increased
same,oxidized thiols (sulfenic acid),[2],similarlevel
same,cytosolic cytochrome c,[3],significant increase
same,Cav-1 expression vs mock-treated control,"[4]; melanoma cells, CNP for 1 h, H2O2 for 1 h and 4 h",completely abrogated
CC(=O)N[C@@H](CS)C(=O)O [N-acetyl-L-cysteine],"caveolin-1 expression after pretreatment, compared to CNP treated cells",[4],increased caveolin-1 expression
COc1cc(C(C)=O)ccc1O [apocynin],CNP mediated hydrogen peroxide generation after apocynin pre-incubation,[5],downregulated
same,"caveolin-1 expression after pretreatment, compared to CNP treated cells",[4],increased caveolin-1 expression
COc1cccc2c1C(=O)c1c(O)c3c(c(O)c1C2=O)C[C@@](O)(C(=O)CO)C[C@@H]3O[C@H]1C[C@H](N)[C@H](O)[C@H](C)O1 [doxorubicin],intracellular ROS level,[6],significantly increased
same,intracellular ROS level,[7],significantly increased
CN[C@@H]1C[C@H]2O[C@@](C)([C@@H]1OC)n1c3ccccc3c3c4c(c5c6ccccc6n2c5c31)C(=O)NC4 [staurosporine],caspase-3 activity,[8],increased
dextran-coated cerium oxide nanoparticles [CNP],cell viability,[9],not altered
same,cell viability,[10],not altered
